Assay results published in US9315458B2, “Nitrogen-containing heterocyclic compound” (Takeda Pharmaceutical Company Limited, priority 2014, dated 2016).

Target: T1, human M1 receptor (hCHRM1) (Homo sapiens, UniProt P11229)
T1 construct: expressed in transfected cells
T1 sequence (P11229 1-460): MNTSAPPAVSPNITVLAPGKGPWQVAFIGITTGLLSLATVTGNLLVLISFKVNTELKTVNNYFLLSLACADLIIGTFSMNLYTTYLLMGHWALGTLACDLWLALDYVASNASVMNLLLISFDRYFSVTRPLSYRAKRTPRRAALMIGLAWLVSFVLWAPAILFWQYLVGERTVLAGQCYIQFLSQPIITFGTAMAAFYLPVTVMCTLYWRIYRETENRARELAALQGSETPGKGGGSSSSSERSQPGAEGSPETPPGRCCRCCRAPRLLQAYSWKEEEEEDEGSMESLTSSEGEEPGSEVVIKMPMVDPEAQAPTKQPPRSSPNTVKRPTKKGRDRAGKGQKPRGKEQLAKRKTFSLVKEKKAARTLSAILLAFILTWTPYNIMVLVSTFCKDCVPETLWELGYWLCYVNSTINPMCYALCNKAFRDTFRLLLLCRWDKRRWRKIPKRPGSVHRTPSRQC
Assay: Measurement of M1 receptor positive allosteric modulator (M1PAM) activity, calcium fluorescence (FLIPRtetra) with acetylcholine at EC20
Format: cell-based
Details: for activity (%) at 10 μM: 10 μM test compound, 100% = acetylcholine 1 μM, 0% = DMSO, acetylcholine at EC20; for EC50: inflection point of concentration-dependent curve, CHO-K1 cells expressing hCHRM1, acetylcholine at EC20 (final 0.6-0.8 nM), read-out: IP value
Outline: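 CHO-K1 cells stably expressing hCHRM1, Fluo-4 AM loaded; compound added with acetylcholine at EC20 (final 0.6-0.8 nM), fluorescence read 1 min. Activity normalised to 1 μM acetylcholine (100%) and DMSO (0%); IP values taken as inflection point of the concentration-response curve.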

Compound | activity (%) at 10 μM | EC50
Cc1nn(C)cc1-c1ccc(Cc2cc3c(c(C)c2C)CN([C@H]2CCC[C@@H]2O)C3=O)c(F)c1 (racemic) [Example 95, rac-6-(4-(1,3-dimethyl-1H-pyrazol-4-yl)-2-fluorobenzyl)-2-(trans-2-hydroxycyclopentyl)-4,5-dimethylisoindolin-1-one] | 92% | 26 nM
Cc1cc2c(cc1Cc1ccc(-c3cn(C)nn3)cc1F)C(=O)N(CC1CCCO1)C2 (stereo not drawn) [Example 54, 6-(2-fluoro-4-(1-methyl-1H-1,2,3-triazol-4-yl)benzyl)-5-methyl-2-(tetrahydrofuran-2-ylmethyl)isoindolin-1-one] | 92% | 37 nM
Cc1cc(-c2ccc(Cc3cc4c(cc3C)CN([C@H]3CCCC[C@@H]3O)C4=O)cn2)ccn1 (racemic) [Example 6, rac-2-(trans-2-hydroxycyclohexyl)-5-methyl-6-((2′-methyl-2,4′-bipyridin-5-yl)methyl)isoindolin-1-one] | 101% | 5.3 nM
Cc1c(Cc2ccc(-n3cccn3)cc2)cc2c(c1F)CN([C@H]1CCC[C@@H]1O)C2=O [Example 107, 4-fluoro-2-((1S,2S)-2-hydroxycyclopentyl)-5-methyl-6-(4-(1H-pyrazol-1-yl)benzyl)isoindolin-1-one] | 102% | 14 nM
Cc1c(Cc2ccc(-n3cccn3)cc2)cc2c(c1C)CN([C@H]1CCCC[C@@H]1O)C2=O (racemic) [Example 29, rac-2-(trans-2-hydroxycyclohexyl)-4,5-dimethyl-6-(4-(1H-pyrazol-1-yl)benzyl)isoindolin-1-one] | 102% | 9.5 nM
Cc1c(Cc2ccc(C#N)c(F)c2)cc2c(c1C)CN([C@H]1COCC[C@@H]1O)C2=O [Example 26, 1,5-anhydro-2-(6-(4-cyano-3-fluorobenzyl)-4,5-dimethyl-1-oxo-1,3-dihydro-2H-isoindol-2-yl)-2,4-dideoxy-L-threo-pentitol] | 99% | 9.2 nM
Cc1cc(-c2ccc(Cc3cc4c(cc3C)CN([C@H]3CCC[C@@H]3O)C4=O)cc2)cnn1 (racemic) [Example 91, rac-2-(trans-2-hydroxycyclopentyl)-5-methyl-6-(4-(6-methylpyridazin-4-yl)benzyl)isoindolin-1-one] | 95% | 38 nM
Cc1c(Cc2ccc(-n3cccn3)cc2)cc2c(c1C)CN(CC1CCCO1)C2=O (stereo not drawn) [Example 80, 4,5-dimethyl-6-(4-(1H-pyrazol-1-yl)benzyl)-2-(tetrahydrofuran-2-ylmethyl)isoindolin-1-one] | 90% | 14 nM
Cc1c(Cc2ccc(C(N)=O)cc2F)cc2c(c1C)CN([C@H]1COCC[C@@H]1O)C2=O (racemic) [Example 113, rac-3-fluoro-4-((2-(trans-4-hydroxytetrahydro-2H-pyran-3-yl)-6,7-dimethyl-3-oxo-2,3-dihydro-1H-isoindol-5-yl)methyl)benzamide] | 82% | 1.5 nM
Cc1c(Cc2ccc(-c3ccn(C)n3)cc2)cc2c(c1C)CN([C@H]1CCC[C@@H]1O)C2=O [Example 13, 2-((1S,2S)-2-hydroxycyclopentyl)-4,5-dimethyl-6-(4-(1-methyl-1H-pyrazol-3-yl)benzyl)isoindolin-1-one] | 104% | 7.9 nM
Cn1cc(-c2ccc(Cc3cc4c(cc3Cl)CN(CC3CCCO3)C4=O)cc2)nn1 (stereo not drawn) [Example 60, 5-chloro-6-(4-(1-methyl-1H-1,2,3-triazol-4-yl)benzyl)-2-(tetrahydrofuran-2-ylmethyl)isoindolin-1-one] | 94% | 72 nM
Cc1c(Cc2ccc(-c3cnn(C)c3)cc2)cc2c(c1C)CN([C@H]1CCC[C@@H]1O)C2=O (racemic) [Example 69, rac-2-(trans-2-hydroxycyclopentyl)-4,5-dimethyl-6-(4-(1-methyl-1H-pyrazol-4-yl)benzyl)isoindolin-1-one] | 95% | 13 nM
Cc1cc2c(cc1Cc1ccc(-c3ccn(C)n3)nc1)C(=O)N([C@H]1CCC[C@@H]1O)C2 (racemic) [Example 43, rac-2-(trans-2-hydroxycyclopentyl)-5-methyl-6-((6-(1-methyl-1H-pyrazol-3-yl)pyridin-3-yl)methyl)isoindolin-1-one] | 110% | 98 nM
Cc1cc2c(cc1Cc1ccc(-n3cccn3)cc1)C(=O)N([C@H]1CCCC[C@@H]1O)C2 (racemic) [Example 32, rac-2-(trans-2-hydroxycyclohexyl)-5-methyl-6-(4-(1H-pyrazol-1-yl)benzyl)isoindolin-1-one] | 99% | 5.6 nM
COc1c(Cc2ccc(-n3cccn3)cc2)cc2c(c1F)CN([C@H]1CCCC[C@@H]1O)C2=O (racemic) [Example 97, rac-4-fluoro-2-(trans-2-hydroxycyclohexyl)-5-methoxy-6-(4-(1H-pyrazol-1-yl)benzyl)isoindolin-1-one] | 96% | 5.3 nM
Cc1cc2c(cc1Cc1ccc(-n3cccn3)cc1)C(=O)N([C@H]1CCC[C@@H]1O)C2 (racemic) [Example 33, rac-2-(trans-2-hydroxycyclopentyl)-5-methyl-6-(4-(1H-pyrazol-1-yl)benzyl)isoindolin-1-one] | 95% | 37 nM
Cc1nn(C)cc1-c1ccc(Cc2cc3c(c(C)c2C)CN([C@H]2CCCC[C@@H]2O)C3=O)c(F)c1 (racemic) [Example 94, rac-6-(4-(1,3-dimethyl-1H-pyrazol-4-yl)-2-fluorobenzyl)-2-(trans-2-hydroxycyclohexyl)-4,5-dimethylisoindolin-1-one] | 92% | 9.5 nM

Second part, the molecule after the results:

activity (%) at 10 μM | EC50 | Compound
87% | 35 nM | Cc1cc2c(cc1Cc1ccc(-n3cccn3)cc1)C(=O)N(C(C)C(C)(C)O)C2 (stereo not drawn) [Example 133, 2-(3-hydroxy-3-methylbutan-2-yl)-5-methyl-6-(4-(1H-pyrazol-1-yl)benzyl)isoindolin-1-one]
94% | 32 nM | COc1ccc(Cc2cc3c(c(F)c2OC)CN([C@H]2CCCC[C@@H]2O)C3=O)cc1 [Example 161, 4-fluoro-2-((1S,2S)-2-hydroxycyclohexyl)-5-methoxy-6-(4-methoxybenzyl)isoindol-1-one]
92% | 25 nM | Cc1c(Cc2ccc(-n3cccn3)cc2F)cc2c(c1C)CN(C[C@@H]1CCCO1)C2=O [Example 115, 6-(2-fluoro-4-(1H-pyrazol-1-yl)benzyl)-4,5-dimethyl-2-((2S)-tetrahydrofuran-2-ylmethyl)isoindolin-2-one]
89% | 22 nM | Cc1c(Cc2ccc(-n3cccn3)cc2F)cc2c(c1C)CN(CC(C)(C)O)C2=O [Example 121, 6-(2-fluoro-4-(1H-pyrazol-1-yl)benzyl)-2-(2-hydroxy-2-methylpropyl)-4,5-dimethylisoindolin-1-one]
97% | 23 nM | CCc1cc2c(cc1Cc1ccc(-n3cccn3)cc1F)C(=O)N([C@H]1COCC[C@@H]1O)C2 [Example 144, 5-ethyl-6-[2-fluoro-4-(1H-pyrazol-1-yl)benzyl]-2-[(3S,4S)-4-hydroxytetrahydro-2H-pyran-3-yl]-2,3-dihydro-1H-isoindol-1-one]
89% | 63 nM | CCc1cc2c(cc1Cc1ccc(OC)cc1)C(=O)N([C@H]1COCC[C@@H]1O)C2 [Example 148, 5-ethyl-2-[(3S,4S)-4-hydroxytetrahydro-2H-pyran-3-yl]-6-(4-methoxybenzyl)-2,3-dihydro-1H-isoindol-1-one]
94% | 2.2 nM | Cc1c(Cc2ccc(-n3cccn3)cc2)cc2c(c1Cl)CN([C@H]1COCC[C@@H]1O)C2=O [Example 130, 4-chloro-2-[(3S,4S)-4-hydroxytetrahydro-2H-pyran-3-yl]-5-methyl-6-[4-(1H-pyrazol-1-yl)benzyl]-2,3-dihydro-1H-isoindol-1-one]
106% | 25 nM | CCc1cc2c(cc1Cc1ccc(-c3cn(C)nn3)cc1)C(=O)N(CC(C)(C)O)C2 [Example 118, 5-ethyl-2-(2-hydroxy-2-methylpropyl)-6-(4-(1-methyl-1H-1,2,3-triazol-4-yl)benzyl)isoindolin-1-one]
100% | 75 nM | Cc1c(Cc2ccc(-n3cccn3)nc2)cc2c(c1C)CN(C[C@@H]1CCCO1)C2=O [Example 136, 4,5-dimethyl-6-((6-(1H-pyrazol-1-yl)pyridin-3-yl)methyl)-2-((2S)-tetrahydrofuran-2-ylmethyl)isoindolin-1-one]
90% | 2.1 nM | CNC(=O)c1ccc(Cc2cc3c(c(C)c2C)CN([C@H]2CCC[C@@H]2O)C3=O)cc1F [Example 123, 2-fluoro-4-((2-((1S,2S)-2-hydroxycyclopentyl)-6,7-dimethyl-3-oxo-2,3-dihydro-1H-isoindol-5-yl)methyl)-N-methylbenzamide]
